According to patent publication US9732050B2, “Modulators of sperm hypermotility and uses thereof” (HYDRA BIOSCIENCES, INC., priority 2005, dated 2017):

Molecular target: T1, Mouse CatSper1 currents (Mus musculus, UniProt Q91ZR5)
T1 construct: Spermatozoa from corpus epididymis were used because the CD of such cells was less fragile; from tissue; host or cells: mouse spermatozoa from corpus epididymis
Experiment: Inhibition of mouse CatSper1 currents in electrophysiological recordings
Assay type: cell-based
Experimental: Compound (II) was tested for its effects on sperm hyperactivation using a single-sperm motility assay as described in Kirichok Y, Navarro B, Clapham D E. “Whole-cell patch-clamp measurements of spermatozoa reveal an alkaline-activated Ca2+ channel”. Nature. 2006; 439(7077):737-40. Mouse sperm was prepared as described in Kirichok.
The patch pipette was applied to the sperm cell cytoplasmic droplet (CD). Spermatozoa from corpus epididymis were used because the CD of such cells was less fragile. The most mature spermatozoa, those with the CD located next to the principal piece, were chosen for experiments. Pipette resistance with Cs-Methanesulfonate-based solutions was 6-13 MΩ. Access resistance in the whole-cell configuration was 25-120 MS). The pipette solution (in mM) was as follows: 140 Cs-Methanesulfonate, 5 NaCl, 10 HEPES, 10 EGTA, pH 7.2 (pH adjusted with CsOH).
Seals between the patch pipette and the cytoplasmic droplet were formed in HS bath solution (Kirichok Y, Navarro B, Clapham D E. Whole-cell patch-clamp measurements of spermatozoa reveal an alkaline-activated Ca2+ channel. Nature. 2006 Feb. 9; 439(7077):737-40). After break-in, the bath solution was changed to recording solution: 150 NaGluconate, 10 HEPES, 2Na3HEDTA and 2 EGTA, pH 7.4 (pH adjusted with NaOH). CaCl2 was added to the solution in accordance with the WinMAXC v2.05 program (C. Patton, Stanford University) to yield ˜[…] free [Ca2+].
A 20 micromolar solution of compound (II), i.e. 3,4-bis(2-thienylcarbonyl)-1,2,5-oxadiazole-2-ium-2-olate, was prepared from a 100 mM DMSO stock in the recording solution described above. Osmolarity of the solutions was approximately 303 mmol kg-1.
The membrane potential was held at 0 mV. Every 5 seconds CatSper currents were monitored by application of a voltage ramp from −100 mV to +100 mV over the course of 400 milliseconds. Following break-in, cells were monitored until a steady state level of CatSper current (plotted at +80 mV) was observed. […] Steady state block was monitored for 5-6 sweeps. […] Series resistance was monitored throughout the recordings.

SMILES: O=C(c1cccs1)c1no[n+]([O-])c1C(=O)c1cccs1 [Compound (II), 3,4-bis(2-thienylcarbonyl)-1,2,5-oxadiazole-2-ium-2-olate]
- block of CatSper current (20 micromolar, current plotted at +80 mV, mouse spermatozoa from corpus epididymis): steady state block was achieved
- sweeps until steady state block (20 micromolar, voltage ramp every 5 seconds): 2-3 sweeps
- CatSper current following removal of the compound (washout after 20 micromolar): returned rapidly to unblocked levels
